Data from ChEMBL document CHEMBL4609983, “Pan-specific and partially selective dye-labeled peptidic inhibitors of the polycomb paralog proteins” (Bioorg Med Chem, 2020).
Non-standard residues stand in square brackets, D forms with d. Residues, ends and D or L forms follow the SMILES beside them. *: point of attachment. X1 = O=C(O)c1cc(NC(=S)*)ccc1-c1c2ccc(=O)cc-2oc2cc(O)ccc12; Lys(Me3) = C[N+](C)(C)CCCC[C@H](N)C(=O)O; Benzoyl(4-Br) = O=C(c1ccc(Br)cc1)*; Gly(cPent) = N[C@H](C(=O)O)C1CCCC1; Abu = CC[C@H](N)C(=O)O; βAla = NCCC(=O)O

Key:
[1] = target: T1, Chromobox protein homolog 6 (Homo sapiens, UniProt O95503); test: Binding affinity to CBX6 (unknown origin) assessed as dissociation constant by fluorescence polarization analysis
T1 sequence (O95503 whole entry): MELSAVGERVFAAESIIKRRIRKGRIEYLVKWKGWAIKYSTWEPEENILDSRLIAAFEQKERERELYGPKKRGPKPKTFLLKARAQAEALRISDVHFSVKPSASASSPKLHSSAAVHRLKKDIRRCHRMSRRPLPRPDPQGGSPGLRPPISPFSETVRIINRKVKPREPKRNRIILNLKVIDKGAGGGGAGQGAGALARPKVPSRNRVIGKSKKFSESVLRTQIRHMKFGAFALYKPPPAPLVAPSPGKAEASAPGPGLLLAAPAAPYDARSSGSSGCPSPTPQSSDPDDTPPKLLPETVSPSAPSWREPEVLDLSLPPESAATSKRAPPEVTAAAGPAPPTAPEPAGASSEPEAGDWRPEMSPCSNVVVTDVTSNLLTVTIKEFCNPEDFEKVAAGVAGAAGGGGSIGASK

[2] = target: T2, Chromobox protein homolog 8 (Homo sapiens, UniProt Q9HC52); test: Binding affinity to CBX8 (unknown origin) assessed as dissociation constant by fluorescence polarization analysis
T2 sequence (Q9HC52 whole entry): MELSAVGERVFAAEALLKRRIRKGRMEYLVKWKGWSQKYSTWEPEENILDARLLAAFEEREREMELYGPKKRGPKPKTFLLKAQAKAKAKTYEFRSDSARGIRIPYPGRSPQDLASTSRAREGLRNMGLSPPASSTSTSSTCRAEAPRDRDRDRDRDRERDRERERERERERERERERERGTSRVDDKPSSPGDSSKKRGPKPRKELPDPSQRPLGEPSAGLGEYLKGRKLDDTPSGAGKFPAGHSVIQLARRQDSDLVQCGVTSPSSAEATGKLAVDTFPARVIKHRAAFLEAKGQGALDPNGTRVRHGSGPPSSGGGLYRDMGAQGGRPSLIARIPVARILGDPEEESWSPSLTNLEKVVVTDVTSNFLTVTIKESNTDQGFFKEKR

[3] = target: T3, Chromobox protein homolog 2 (Homo sapiens, UniProt Q14781); test: Binding affinity to CBX2 (unknown origin) assessed as dissociation constant by fluorescence polarization analysis
T3 sequence (Q14781 whole entry): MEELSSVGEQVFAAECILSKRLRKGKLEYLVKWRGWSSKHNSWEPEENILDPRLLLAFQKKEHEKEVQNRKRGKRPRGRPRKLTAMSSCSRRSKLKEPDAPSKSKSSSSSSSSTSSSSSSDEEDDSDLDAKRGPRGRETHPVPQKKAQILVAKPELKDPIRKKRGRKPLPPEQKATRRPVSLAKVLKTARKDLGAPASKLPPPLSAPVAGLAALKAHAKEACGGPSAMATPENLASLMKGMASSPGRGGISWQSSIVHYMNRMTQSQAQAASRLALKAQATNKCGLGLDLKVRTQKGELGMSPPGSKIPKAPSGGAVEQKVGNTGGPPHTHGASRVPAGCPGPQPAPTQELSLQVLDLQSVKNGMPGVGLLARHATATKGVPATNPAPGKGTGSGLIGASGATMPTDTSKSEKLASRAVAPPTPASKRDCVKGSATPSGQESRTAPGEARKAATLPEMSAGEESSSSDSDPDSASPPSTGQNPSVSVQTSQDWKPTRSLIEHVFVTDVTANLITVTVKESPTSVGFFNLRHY

[4] = target: Chromobox protein homolog 1 (Homo sapiens, UniProt P83916); test: Binding affinity to CBX1 (unknown origin) assessed as dissociation constant by fluorescence polarization analysis
[5] = target: T4, E3 SUMO-protein ligase CBX4 (Homo sapiens, UniProt O00257); test: Binding affinity to CBX4 (unknown origin) assessed as dissociation constant by fluorescence polarization analysis
T4 sequence (O00257 whole entry): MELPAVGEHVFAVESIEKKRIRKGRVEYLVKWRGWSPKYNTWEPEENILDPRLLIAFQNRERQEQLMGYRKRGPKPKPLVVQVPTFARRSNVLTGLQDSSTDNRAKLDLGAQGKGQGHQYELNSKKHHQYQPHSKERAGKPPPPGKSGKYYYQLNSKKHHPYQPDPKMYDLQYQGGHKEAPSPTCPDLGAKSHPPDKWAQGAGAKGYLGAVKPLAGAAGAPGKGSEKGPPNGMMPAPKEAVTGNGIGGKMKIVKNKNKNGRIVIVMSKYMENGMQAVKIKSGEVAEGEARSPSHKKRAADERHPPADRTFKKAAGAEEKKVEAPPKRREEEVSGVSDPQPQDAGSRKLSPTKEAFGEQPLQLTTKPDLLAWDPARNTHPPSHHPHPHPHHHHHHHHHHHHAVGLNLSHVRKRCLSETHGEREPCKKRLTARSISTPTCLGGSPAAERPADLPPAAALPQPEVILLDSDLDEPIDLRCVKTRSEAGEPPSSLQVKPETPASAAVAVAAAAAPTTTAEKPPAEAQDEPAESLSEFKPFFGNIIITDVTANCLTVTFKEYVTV

[6] = target: T5, Chromobox protein homolog 7 (Homo sapiens, UniProt O95931); test: Binding affinity to CBX7 (unknown origin) assessed as dissociation constant by fluorescence polarization analysis
T5 sequence (O95931 whole entry): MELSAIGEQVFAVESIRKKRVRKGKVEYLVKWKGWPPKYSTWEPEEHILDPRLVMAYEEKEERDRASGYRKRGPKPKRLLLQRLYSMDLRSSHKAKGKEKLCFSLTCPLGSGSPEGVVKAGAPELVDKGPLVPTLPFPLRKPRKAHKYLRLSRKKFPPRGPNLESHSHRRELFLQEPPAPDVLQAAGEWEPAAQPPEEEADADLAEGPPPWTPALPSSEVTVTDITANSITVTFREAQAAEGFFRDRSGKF

[7] = target: T5, Chromobox protein homolog 7; test: Inhibition of CBX7 (unknown origin) assessed as […] by competitive FP assay
[8] = target: T2, Chromobox protein homolog 8; test: Inhibition of CBX8 (unknown origin) assessed as […] by competitive FP assay
Homo sapiens [9] = organism: Homo sapiens; test: Selectivity ratio of IC50 for CBX8 (unknown origin) to IC50 for CBX7 (unknown origin)
Homo sapiens [10] = organism: Homo sapiens; test: Selectivity ratio of IC50 for CBX6 (unknown origin) to IC50 for CBX7 (unknown origin)
[11] = target: T1, Chromobox protein homolog 6; test: Inhibition of CBX6 (unknown origin) assessed as […] by competitive FP assay
TOV21G = test: Decrease in cell viability in human TOV21G cells by MTT assay; assay type: cell-based
[12] = Drug uptake in human PC3 cells assessed as endosomal entrapment by measuring characteristic punctate dots in the cytoplasm at 10 uM by cell imaging analysis; assay type: ADME, cell-based; conditions: pc-3, 10 µM
[13] = Drug uptake in nucleus of human PC3 cells by live cell imaging analysis; assay type: ADME, cell-based; conditions: pc-3
[14] = Drug uptake in cytoplasm of human TOV21G cells by live cell imaging analysis; assay type: ADME, cell-based
[15] = Drug uptake in cytoplasm of human PC3 cells by live cell imaging analysis; assay type: ADME, cell-based; conditions: pc-3
[16] = Drug uptake in nucleus of human TOV21G cells by live cell imaging analysis; assay type: ADME, cell-based
[17] = Drug uptake in human TOV21G cells assessed as endosomal entrapment by measuring characteristic punctate dots in the cytoplasm at 10 uM by cell imaging analysis; assay type: ADME, cell-based
Homo sapiens [18] = organism: Homo sapiens; test: Selectivity ratio of Kd for CBX6 (unknown origin) to Kd for CBX8 (unknown origin)
Homo sapiens [19] = organism: Homo sapiens; test: Selectivity ratio of Kd for CBX7 (unknown origin) to Kd for CBX8 (unknown origin)
Homo sapiens [20] = organism: Homo sapiens; test: Selectivity ratio of Kd for CBX4 (unknown origin) to Kd for CBX8 (unknown origin)
Homo sapiens [21] = organism: Homo sapiens; test: Selectivity ratio of Kd for CBX1 (unknown origin) to Kd for CBX8 (unknown origin)
Homo sapiens [22] = organism: Homo sapiens; test: Selectivity ratio of Kd for CBX2 (unknown origin) to Kd for CBX8 (unknown origin)

Sequence of Chromobox protein homolog 1 (P83916 whole entry): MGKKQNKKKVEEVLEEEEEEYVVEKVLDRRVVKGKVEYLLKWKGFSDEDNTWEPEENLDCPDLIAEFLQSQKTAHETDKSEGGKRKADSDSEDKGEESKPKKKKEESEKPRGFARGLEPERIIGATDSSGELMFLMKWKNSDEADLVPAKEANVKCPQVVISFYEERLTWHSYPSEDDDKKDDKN

Structure (SMILES)	Kd [1] [nM]	Kd [2] [nM]	Kd [3] [nM]	Kd [4] [nM]	Kd [5] [nM]	Kd [6] [nM]	IC50 [7] [nM]	IC50 [8] [nM]	IC50 [11] [nM]	Activity (TOV21G)	also measured
CC(=O)N[C@@H](Cc1ccccc1)C(=O)N[C@@H](Cc1ccccc1)C(=O)N[C@@H](C)C(=O)N[C@@H](CC(C)C)C(=O)N[C@@H](CCCC[N+](C)(C)C)C(=O)N[C@@H](CO)C(=O)N[C@@H](CCC(=O)O)C(=O)N[C@@H](CCCCNC(=S)Nc1ccc(-c2c3ccc(=O)cc-3oc3cc(O)ccc23)c(C(=O)O)c1)C(N)=O (Ac-FFAL[Lys(Me3)]SEK(X1)-NH2)	1000	2600	18000	110000	15000	1500					
C[C@H](NC(=O)[C@H](Cc1ccccc1)NC(=O)c1ccc(Br)cc1)C(=O)N[C@@H](Cc1ccc(O)cc1)C(=O)N[C@@H](CCCC[N+](C)(C)C)C(=O)N[C@@H](CO)C(N)=O ({Benzoyl(4-Br)}-FAY[Lys(Me3)]S-NH2)							2300	42000	16000		Ratio IC50 (Homo sapiens [9]): 18; Ratio IC50 (Homo sapiens [10]): 7
C[C@H](NC(=O)[C@H](Cc1ccccc1)NC(=O)c1ccc(Br)cc1)C(=O)N[C@@H](Cc1ccc(O)cc1)C(=O)N[C@@H](CCCC[N+](C)(C)C)C(=O)N[C@@H](CO)C(=O)N[C@@H](CCC(=O)O)C(N)=O ({Benzoyl(4-Br)}-FAY[Lys(Me3)]SE-NH2)							2000	12000	6000	Non-Toxic	
CC(C)C[C@H](NC(=O)[C@H](CO)NC(=O)[C@H](CCCC[N+](C)(C)C)NC(=O)[C@H](Cc1ccc(O)cc1)NC(=O)[C@H](C)NC(=O)[C@H](Cc1ccccc1)NC(=O)c1ccc(Br)cc1)C(N)=O ({Benzoyl(4-Br)}-FAY[Lys(Me3)]SL-NH2)							1100	19000	13000	Non-Toxic	
CC(C)C[C@H](NC(=O)[C@H](C)NC(=O)[C@H](Cc1ccccc1)NC(=O)CCNC(=S)Nc1ccc(-c2c3ccc(=O)cc-3oc3cc(O)ccc23)c(C(=O)O)c1)C(=O)N[C@@H](CCCC[N+](C)(C)C)C(=O)N[C@@H](CO)C(N)=O ({X1-βAla}-FAL[Lys(Me3)]S-NH2)	900	4500	1100	2500	800	700					

The next lines start with results.

Kd [1] [nM]	Kd [2] [nM]	Kd [3] [nM]	Kd [4] [nM]	Kd [5] [nM]	Kd [6] [nM]	IC50 [7] [nM]	IC50 [8] [nM]	IC50 [11] [nM]	Structure (SMILES)	Activity (TOV21G)	also measured
47	624		4750		12				C[C@H](NC(=O)[C@H](Cc1ccccc1)NC(=O)c1ccc(Br)cc1)C(=O)N[C@@H](Cc1ccc(O)cc1)C(=O)N[C@@H](CCCC[N+](C)(C)C)C(=O)N[C@@H](CO)C(=O)N[C@@H](CCC(=O)O)C(=O)N[C@@H](CCCCNC(=S)Nc1ccc(-c2c3ccc(=O)cc-3oc3cc(O)ccc23)c(C(=O)O)c1)C(N)=O ({Benzoyl(4-Br)}-FAY[Lys(Me3)]SEK(X1)-NH2)	Toxic	Drug uptake [12]: Active; Drug uptake [13]: Not Active; Drug uptake [14]: Not Active; Drug uptake [15]: Not Active; Drug uptake [16]: Not Active; Drug uptake [17]: Active
78	890		1750		11				CC(C)C[C@H](NC(=O)[C@H](CO)NC(=O)[C@H](CCCC[N+](C)(C)C)NC(=O)[C@H](Cc1ccc(O)cc1)NC(=O)[C@H](C)NC(=O)[C@H](Cc1ccccc1)NC(=O)c1ccc(Br)cc1)C(=O)N[C@@H](CCCCNC(=S)Nc1ccc(-c2c3ccc(=O)cc-3oc3cc(O)ccc23)c(C(=O)O)c1)C(N)=O ({Benzoyl(4-Br)}-FAY[Lys(Me3)]SLK(X1)-NH2)		
800	960	1500	180000	700	300				CC[C@H](NC(=O)[C@H](Cc1ccccc1)NC(=O)c1ccc(Br)cc1)C(=O)N[C@@H](Cc1ccccc1)C(=O)N[C@@H](CCCC[N+](C)(C)C)C(=O)N[C@@H](CO)C(=O)N[C@@H](CCC(=O)O)C(=O)N[C@@H](CCCCNC(=S)Nc1ccc(-c2c3ccc(=O)cc-3oc3cc(O)ccc23)c(C(=O)O)c1)C(N)=O ({Benzoyl(4-Br)}-F[Abu]F[Lys(Me3)]SEK(X1)-NH2)		
350	120	390	3200	600	160				CC[C@H](NC(=O)[C@H](Cc1ccccc1)NC(=O)c1ccc(Br)cc1)C(=O)N[C@H](C(=O)N[C@@H](CCCC[N+](C)(C)C)C(=O)N[C@@H](CO)C(=O)N[C@@H](CCC(=O)O)C(=O)N[C@@H](CCCCNC(=S)Nc1ccc(-c2c3ccc(=O)cc-3oc3cc(O)ccc23)c(C(=O)O)c1)C(N)=O)C1CCCC1 ({Benzoyl(4-Br)}-F[Abu][Gly(cPent)][Lys(Me3)]SEK(X1)-NH2)		Selectivity ratio (Homo sapiens [18]): 3; Selectivity ratio (Homo sapiens [19]): 2; Selectivity ratio (Homo sapiens [20]): 5; Selectivity ratio (Homo sapiens [21]): 26; Selectivity ratio (Homo sapiens [22]): 3
